Among the data in patent US8299267B2, “(3-hydroxy-4-amino-butan-2-yl) -3- (2-thiazol-2-yl-pyrrolidine-1-carbonyl) benzamide derivatives and related compounds as beta-secretase inhibitors for treating” (CoMentis, Inc., priority 2007, dated 2012) are Ki and IC50 values, retold here.

One test concerns the target memapsin 2 (Homo sapiens, UniProt P56817). As to the kind of experiment: Inhibition of memapsin 2 beta-secretase activity toward fluorogenic substrate FS-2. Format: biochemical. The note with it: memapsin 2, pH 4, 37° C., 20 minutes pre-incubation, substrate FS-2; read-out: M2Ki. In a few lines:
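Memapsin 2 was preincubated with compound 20 min at pH 4, 37 °C, then reacted with fluorogenic substrate FS-2 (MCA-SEVNLDAEFK-DNP), an APP-derived Swedish-variant peptide. Inhibition was followed kinetically by fluorescence.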

Test [1] has as its system Aβ production in Chinese hamster ovary cells that over-express human APP695 with the London and Swedish mutations. As to the kind of experiment: Cellular Aβ IC50 determination (Aβ40 sandwich ELISA). Type of test: cell-based. The note with it: Cricetulus griseus; Aβ40 in CHO cells over-expressing human APP695, 24 h incubation. On the procedure:
The potency of compounds against memapsin 2 activity was determined in a cellular assay of Aβ production. […] Chinese hamster ovary cells that over-express human APP695 with the London and Swedish mutations were seeded in multi-well plates at 10% confluency. Compounds are dissolved in DMSO to concentrations near 1 mM, and diluted into culture media to a final concentration near 4 μM (final 0.4% DMSO). Compounds were diluted serially and applied to cells in multi-well plates 48 h after seeding. Incubation was continued in 5% CO2 at 37° C. for 24 h. Aliquots were removed and assayed for Aβ40 content using a sandwich ELISA (BioSource International). Amount of Aβ40 over the range of concentration of compounds, relative to control incubations, were fit to a 4-parameter IC50 model.

Chain of memapsin 2 (P56817 46-501): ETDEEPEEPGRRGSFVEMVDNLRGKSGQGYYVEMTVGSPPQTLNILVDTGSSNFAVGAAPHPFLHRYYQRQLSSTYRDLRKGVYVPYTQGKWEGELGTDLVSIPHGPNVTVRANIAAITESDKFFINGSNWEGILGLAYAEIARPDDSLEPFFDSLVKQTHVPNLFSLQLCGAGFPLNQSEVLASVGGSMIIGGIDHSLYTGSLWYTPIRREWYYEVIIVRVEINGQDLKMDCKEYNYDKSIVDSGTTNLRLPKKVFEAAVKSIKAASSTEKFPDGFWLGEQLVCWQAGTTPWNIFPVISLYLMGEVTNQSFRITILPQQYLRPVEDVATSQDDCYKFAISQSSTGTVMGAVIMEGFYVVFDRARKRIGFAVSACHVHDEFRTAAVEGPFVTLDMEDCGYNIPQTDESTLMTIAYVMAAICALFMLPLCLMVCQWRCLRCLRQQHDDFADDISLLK

`Cc1coc([C@H]2CCCN2C(=O)c2cccc(C(=O)N[C@@H](Cc3ccccc3)[C@H](O)CNCc3cncc(C(C)(C)F)c3)c2)n1` [Compound 39, N-((2S,3R)-4-((5-(2-fluoropropan-2-yl)pyridin-3-yl)methylamino)-3-hydroxy-1-phenylbutan-2-yl)-3-((R)-2-(4-methyloxazol-2-yl)pyrrolidine-1-carbonyl)benzamide]: the Ki on memapsin 2 was < 100 nM. Also, the half-inhibitory concentration (IC50) in test [1] is < 300 nM.

With `Cc1csc([C@H]2CCCN2C(=O)c2cc(C(=O)N[C@@H](Cc3ccccc3)[C@H](O)CNCc3cncc(C(C)(F)F)c3)cc(N(C)C)c2)n1` [Compound 40, N-((2S,3R)-4-((5-(1,1-difluoroethyl)pyridin-3-yl)methylamino)-3-hydroxy-1-phenylbutan-2-yl)-3-(dimethylamino)-5-((R)-2-(4-methylthiazol-2-yl)pyrrolidine-1-carbonyl)benzamide], the Ki on memapsin 2 was < 100 nM. For the same molecule, the IC50 in test [1] is < 300 nM.

As for `Cc1csc([C@H]2CCCN2C(=O)c2cc(C(=O)N[C@@H](Cc3ccccc3)[C@H](O)CNCc3cccc(C(C)(C)C)c3)cc(N(C)C)c2)n1` [Compound 41, N-((2S,3R)-4-(3-tert-butylbenzylamino)-3-hydroxy-1-phenylbutan-2-yl)-3-(dimethylamino)-5-((R)-2-(4-methylthiazol-2-yl)pyrrolidine-1-carbonyl)benzamide], at memapsin 2, the Ki was < 100 nM. Besides, the IC50 in test [1] is < 300 nM.

Regarding `Cc1cc(C(=O)N[C@@H](Cc2ccccc2)[C@H](O)CNCc2cncc(C(C)(C)F)c2)cc(C(=O)N2CCC[C@@H]2c2nc(C)cs2)c1` [Compound 42, N-((2S,3R)-4-((5-(2-fluoropropan-2-yl)pyridin-3-yl)methylamino)-3-hydroxy-1-phenylbutan-2-yl)-3-methyl-5-((R)-2-(4-methylthiazol-2-yl)pyrrolidine-1-carbonyl)benzamide], the Ki on memapsin 2 is < 100 nM. Besides, the IC50 in test [1] is < 300 nM.

Consider `Cc1csc([C@H]2CCCN2C(=O)c2cc(C(=O)N[C@@H](Cc3ccccc3)[C@H](O)CNCc3cncc(C(C)C)c3)cc(-c3cnccn3)c2)n1` [Compound 43, N-((2S,3R)-3-hydroxy-4-((5-isopropylpyridin-3-yl)methylamino)-1-phenylbutan-2-yl)-3-((R)-2-(4-methylthiazol-2-yl)pyrrolidine-1-carbonyl)-5-(pyrazin-2-yl)benzamide], for which the Ki at memapsin 2 was < 100 nM. In test [1], the half-inhibitory concentration (IC50) is < 300 nM.

For the molecule `Cc1csc([C@H]2CCCN2C(=O)c2cncc(C(=O)N[C@@H](Cc3ccccc3)[C@H](O)CNCc3cncc(C(C)(C)F)c3)c2)n1` [Compound 44, N-((2S,3R)-4-((5-(2-fluoropropan-2-yl)pyridin-3-yl)methylamino)-3-hydroxy-1-phenylbutan-2-yl)-5-((R)-2-(4-methylthiazol-2-yl)pyrrolidine-1-carbonyl)nicotinamide], on memapsin 2, the Ki is < 100 nM. In test [1], the IC50 was < 300 nM.

Take `Cc1csc([C@H]2CCCN2C(=O)c2cccc(C(=O)N[C@@H](Cc3ccccc3)[C@H](O)CNCc3cncc(C(C)(C)F)c3)c2)n1` [Compound 45, N-((2S,3R)-4-((5-(2-fluoropropan-2-yl)pyridin-3-yl)methylamino)-3-hydroxy-1-phenylbutan-2-yl)-3-((R)-2-(4-methylthiazol-2-yl)pyrrolidine-1-carbonyl)benzamide]: the Ki at memapsin 2 was < 100 nM. Moreover, the IC50 in test [1] was < 300 nM.

For `Cc1csc([C@H]2CCCN2C(=O)c2cccc(C(=O)N[C@@H](Cc3ccccc3)[C@H](O)CN[C@H](C)c3cncc(C(C)C)c3)c2)n1` [Compound 46, N-((2S,3R)-3-hydroxy-4-((R)-1-(5-isopropylpyridin-3-yl)ethylamino)-1-phenylbutan-2-yl)-3-((R)-2-(4-methylthiazol-2-yl)pyrrolidine-1-carbonyl)benzamide], the Ki on memapsin 2 was < 100 nM. Moreover, the half-maximal inhibitory concentration (IC50) in test [1] is < 300 nM.

For the molecule `Cc1csc([C@H]2CCCN2C(=O)c2cc(C(=O)N[C@@H](Cc3ccccc3)[C@H](O)CNCc3cccc(Cl)c3)cc(N(C)C)c2)n1` [Compound 47, N-((2S,3R)-4-(3-chlorobenzylamino)-3-hydroxy-1-phenylbutan-2-yl)-3-(dimethylamino)-5-((R)-2-(4-methylthiazol-2-yl)pyrrolidine-1-carbonyl)benzamide], the Ki on memapsin 2 was < 100 nM. Besides, the half-maximal inhibitory concentration (IC50) in test [1] was < 300 nM.

Consider `Cc1csc([C@H]2CCCN2C(=O)c2cc(C(=O)N[C@@H](Cc3ccccc3)[C@H](O)CNCc3cc(Cl)cc(Cl)c3)cc(N(C)C)c2)n1` [Compound 48, N-((2S,3R)-4-(3,5-dichlorobenzylamino)-3-hydroxy-1-phenylbutan-2-yl)-3-(dimethylamino)-5-((R)-2-(4-methylthiazol-2-yl)pyrrolidine-1-carbonyl)benzamide], for which the Ki on memapsin 2 was < 100 nM. Besides, the IC50 in test [1] was < 300 nM.

`Cc1csc([C@H]2CCCN2C(=O)c2cc(C(=O)N[C@@H](Cc3ccccc3)[C@H](O)CNCc3cccc(C(F)(F)F)c3)cc(-c3cnccn3)c2)n1` [Compound 49, N-((2S,3R)-3-hydroxy-1-phenyl-4-(3-(trifluoromethyl)benzylamino)butan-2-yl)-3-((R)-2-(4-methylthiazol-2-yl)pyrrolidine-1-carbonyl)-5-(pyrazin-2-yl)benzamide]: the Ki at memapsin 2 was < 100 nM. In test [1], the IC50 was < 300 nM.

For the molecule `Cc1csc([C@H]2CCCN2C(=O)c2cc(CF)cc(C(=O)N[C@@H](Cc3ccccc3)[C@H](O)CNCc3cncc(C(C)(C)F)c3)c2)n1` [Compound 50, 3-(fluoromethyl)-N-((2S,3R)-4-((5-(2-fluoropropan-2-yl)pyridin-3-yl)methylamino)-3-hydroxy-1-phenylbutan-2-yl)-5-((R)-2-(4-methylthiazol-2-yl)pyrrolidine-1-carbonyl)benzamide], the Ki on memapsin 2 is < 100 nM. Also, the IC50 in test [1] was < 300 nM.

As for `Cc1csc([C@H]2CCCN2C(=O)c2cc(CF)cc(C(=O)N[C@@H](Cc3ccccc3)[C@H](O)CNCc3cncc(C(F)(F)F)c3)c2)n1` [Compound 51, 3-(fluoromethyl)-N-((2S,3R)-3-hydroxy-1-phenyl-4-((5-(trifluoromethyl)pyridin-3-yl)methylamino)butan-2-yl)-5-((R)-2-(4-methylthiazol-2-yl)pyrrolidine-1-carbonyl)benzamide], the Ki at memapsin 2 is < 100 nM. In addition, the IC50 in test [1] is < 300 nM.

In the case of `Cc1cc(C(=O)N[C@@H](Cc2ccccc2)[C@H](O)CNCc2cncc(C(C)C)c2)cc(C(=O)N2CCC[C@@H]2c2nc(C)cs2)c1` [Compound 52, N-((2S,3R)-3-hydroxy-4-((5-isopropylpyridin-3-yl)methylamino)-1-phenylbutan-2-yl)-3-methyl-5-((R)-2-(4-methylthiazol-2-yl)pyrrolidine-1-carbonyl)benzamide], the Ki at memapsin 2 is < 100 nM. In test [1], the IC50 is < 300 nM.

For `Cc1cc(C(=O)N[C@@H](Cc2ccccc2)[C@H](O)CNCc2cccc(C(F)(F)F)c2)cc(C(=O)N2CCC[C@@H]2c2nc(C)co2)c1` [Compound 55, N-((2S,3R)-3-hydroxy-1-phenyl-4-(3-(trifluoromethyl)benzylamino)butan-2-yl)-3-methyl-5-((R)-2-(4-methyloxazol-2-yl)pyrrolidine-1-carbonyl)benzamide], the Ki on memapsin 2 is < 100 nM. In test [1], the IC50 is < 300 nM.

`Cc1cc(C(=O)N[C@@H](Cc2ccccc2)[C@H](O)CNCc2cncc(C(C)C)c2)cc(C(=O)N2CCC[C@@H]2c2nc(C)co2)c1` [Compound 56, N-((2S,3R)-3-hydroxy-4-((5-isopropylpyridin-3-yl)methylamino)-1-phenylbutan-2-yl)-3-methyl-5-((R)-2-(4-methyloxazol-2-yl)pyrrolidine-1-carbonyl)benzamide]: the Ki on memapsin 2 is < 100 nM. In addition, in test [1], the IC50 was < 300 nM.

Take `Cc1csc([C@H]2CCCN2C(=O)c2cc(C(=O)N[C@@H](Cc3ccccc3)[C@H](O)CNCc3cccc(C(F)(F)F)c3)cc(C(F)F)c2)n1` [Compound 57, 3-(difluoromethyl)-N-((2S,3R)-3-hydroxy-1-phenyl-4-(3-(trifluoromethyl)benzylamino)butan-2-yl)-5-((R)-2-(4-methylthiazol-2-yl)pyrrolidine-1-carbonyl)benzamide]: the Ki at memapsin 2 was < 100 nM. Also, the IC50 in test [1] is < 300 nM.

Take `Cc1cc(C(=O)N[C@@H](Cc2ccccc2)[C@H](O)CNCc2cncc(C(C)(C)F)c2)cc(C(=O)N2CCC[C@@H]2c2nc(C)co2)c1` [Compound 59, N-((2S,3R)-4-((5-(2-fluoropropan-2-yl)pyridin-3-yl)methylamino)-3-hydroxy-1-phenylbutan-2-yl)-3-methyl-5-((R)-2-(4-methyloxazol-2-yl)pyrrolidine-1-carbonyl)benzamide]: the Ki at memapsin 2 was < 100 nM. Besides, the concentration for half-maximal inhibition (IC50) in test [1] was < 300 nM.

For `Cc1csc([C@H]2CCCN2C(=O)c2cncc(C(=O)N[C@@H](Cc3ccccc3)[C@H](O)CNCc3cc(Cl)cc(Cl)c3)c2)n1` [Compound 60, N-((2S,3R)-4-(3,5-dichlorobenzylamino)-3-hydroxy-1-phenylbutan-2-yl)-5-((R)-2-(4-methylthiazol-2-yl)pyrrolidine-1-carbonyl)nicotinamide], the Ki on memapsin 2 was < 100 nM. Further, the half-inhibitory concentration (IC50) in test [1] was < 300 nM.
